Read-outs that look alike come from different tables or passages of the source.

This note sets out measurements from article PMC10228259 (Nature, 2023).

For data set [1], the target named is T1, chemotactile receptor for terpenes 1 (CRT1) (Octopus bimaculoides, UniProt A0A0L8FVQ9).
T1 sequence (A0A0L8FVQ9 21-399): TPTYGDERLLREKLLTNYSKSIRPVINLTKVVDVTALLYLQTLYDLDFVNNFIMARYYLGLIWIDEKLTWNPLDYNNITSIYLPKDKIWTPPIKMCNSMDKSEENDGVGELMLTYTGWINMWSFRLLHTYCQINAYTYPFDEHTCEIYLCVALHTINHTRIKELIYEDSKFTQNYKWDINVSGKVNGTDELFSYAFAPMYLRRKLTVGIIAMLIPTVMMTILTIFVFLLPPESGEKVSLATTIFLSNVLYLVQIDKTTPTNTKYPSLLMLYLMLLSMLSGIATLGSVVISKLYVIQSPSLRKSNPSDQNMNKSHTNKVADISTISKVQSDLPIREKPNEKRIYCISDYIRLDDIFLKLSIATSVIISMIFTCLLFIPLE
Description: patch clamp dose-response in HEK […] cells expressing CRT1. Format: cell-based.

In data set [2] the target is T1, chemotactile receptor for terpenes 1 (CRT1). Described as above. The class given is cell-based. This is another data set of the same source.
Data set [3] addresses T2, chemotactile receptor for terpenes 1 (CRT1, previously CR518) (Octopus bimaculoides, UniProt A0A0L8FVQ9).
T2 sequence (A0A0L8FVQ9 21-399): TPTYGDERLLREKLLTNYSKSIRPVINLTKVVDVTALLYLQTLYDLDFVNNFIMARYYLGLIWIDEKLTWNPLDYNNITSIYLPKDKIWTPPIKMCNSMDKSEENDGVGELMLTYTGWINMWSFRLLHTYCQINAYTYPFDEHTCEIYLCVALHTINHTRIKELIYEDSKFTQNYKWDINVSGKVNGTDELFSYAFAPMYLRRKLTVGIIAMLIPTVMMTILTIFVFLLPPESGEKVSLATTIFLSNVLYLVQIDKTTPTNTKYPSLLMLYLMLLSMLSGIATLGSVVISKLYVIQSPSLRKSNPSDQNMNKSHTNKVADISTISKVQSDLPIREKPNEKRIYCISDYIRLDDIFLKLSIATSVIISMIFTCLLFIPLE
Description: cryo-EM structure at […] Å. The class given is cell-based.

Data set [4] deals with the molecule itself. Description: cryo-EM structure.

On to `C[C@H]1CCCC(=O)CCC/C=C/c2cc(O)cc(O)c2C(=O)O1` [zearalenone], for which a half-maximal response in data set [1] (EC50) required 4.8 µM.
For the molecule `C=C(C)[C@@H]1CCC2=CC(=O)C[C@@H](C)[C@]2(C)C1` [nootkatone], the response in data set [2] was half-maximal at 16.1 µM (EC50).
Consider `C[C@@H]1CC[C@@]2(OC1)O[C@H]1C[C@H]3[C@@H]4CC=C5C[C@@H](OCCC(CO[C@@H]6O[C@H](CO)[C@@H](O[C@H]7O[C@H](CO)[C@@H](O)[C@H](O)[C@H]7O)[C@H](O)[C@H]6O)CO[C@@H]6O[C@H](CO)[C@@H](O[C@H]7O[C@H](CO)[C@@H](O)[C@H](O)[C@H]7O)[C@H](O)[C@H]6O)CC[C@]5(C)[C@H]4CC[C@]3(C)[C@H]1[C@@H]2C` [GDN, glyco-diosgenin], for which the concentration giving a half-maximal response (EC50) (as a rule, the concentration needed to bring the measured effect to its halfway point) in data set [3] stood at 0.125 µM.

B1: chemotactile receptor for terpenes 1 (CRT1) (receptor, Octopus bimaculoides, UniProt A0A0L8FVQ9 21-399, looked up)
chain: TPTYGDERLLREKLLTNYSKSIRPVINLTKVVDVTALLYLQTLYDLDFVNNFIMARYYLGLIWIDEKLTWNPLDYNNITSIYLPKDKIWTPPIKMCNSMDKSEENDGVGELMLTYTGWINMWSFRLLHTYCQINAYTYPFDEHTCEIYLCVALHTINHTRIKELIYEDSKFTQNYKWDINVSGKVNGTDELFSYAFAPMYLRRKLTVGIIAMLIPTVMMTILTIFVFLLPPESGEKVSLATTIFLSNVLYLVQIDKTTPTNTKYPSLLMLYLMLLSMLSGIATLGSVVISKLYVIQSPSLRKSNPSDQNMNKSHTNKVADISTISKVQSDLPIREKPNEKRIYCISDYIRLDDIFLKLSIATSVIISMIFTCLLFIPLE
modifications: N-linked glycans
In the case of B1, the stoichiometry N – broadly, the number of molecules, sites or subunits per partner or assembly – in data set [4] is 5.
